How the values were obtained:
Type in all cases: cell-based
[1] = tested on: Fumonisin FB1 production by Fusarium proliferatum; assay: Inhibition of fumonisin FB1 production by Fusarium proliferatum in fumonisin-inducing liquid media (HPLC-MS/MS); conditions: 120 h, 5 days at 20° C., vs control without compound
[2] = tested on: Fusarium proliferatum; assay: microbe, parasite or virus in culture; conditions: 120 h
[3] = tested on: DON/Acetyl-DON production by Fusarium graminearum; assay: microbe, parasite or virus in culture; conditions: 168 h, read-out: % Inhibition of DON/AcDON at 50 μM
[4] = tested on: Fusarium graminearum; assay: microbe, parasite or virus in culture; conditions: 72 h, read-out: % Inhibition of fungal growth at 50 μM
[5] = tested on: Production of Aflatoxins by Aspergillus parasiticus; assay: microbe, parasite or virus in culture; conditions: 168 h, read-out: % Inhibition of Aflatoxin at 50 μM
[6] = tested on: Aspergillus parasiticus; assay: microbe, parasite or virus in culture; conditions: 168 h, read-out: % Inhibition of fungal growth at 50 μM

| Structure (SMILES) | inhibition at 50 µM [1] [%] | inhibition at 50 µM [2] [%] | inhibition at 50 µM [3] [%] | inhibition at 50 µM [4] [%] | inhibition at 50 µM [5] [%] | inhibition at 50 µM [6] [%] |
| --- | --- | --- | --- | --- | --- | --- |
| COC(c1ccc(Cl)cc1Cl)C(C)NC(=O)c1cn(C)nc1C(F)F (stereo not drawn) [Example 1] | 100 | 67 | 100 | 54 | 100 | 100 |
| COC(c1ccc(Cl)cc1Cl)C(C)NC(=O)c1c(C)nn(C)c1F (stereo not drawn) [Example 2] | 100 | 77 | 100 | 58 | 100 | 100 |
| COC(c1ccc(Cl)cc1Cl)C(C)NC(=O)c1c(C(F)F)nn(C)c1F (stereo not drawn) [Example 3] | 100 | 86 | 100 | 41 | 100 | 100 |

— US20130331261A1 (priority 2010, published 2013)
